≈ marks a conversion by molar mass, not a printed value.
How the values were obtained:
Test in all cases: MIC by micro broth dilution
Assay type in all cases: cell-based
S. epidermidis S12-1 = conditions: for MIC: Staphylococcus epidermidis, S121, read-out: Minimum inhibitory concentration (MIC)
Description: (§1) MIC of DART molecules were determined by micro broth dilution as per CLSI guidelines. Bacterial strains were cultured in Brain Heart Infusion Agar (BHIA) at 37° C. for 24 h. For MIC determination, BHI broth (100 μl) was added to each of the wells of a 96 well plate. 100 μl of broth containing drug was added to the first well (1A to 1H) and thereafter serial (double) dilutions were carried out for up to 10 wells (column 1 to column 10 of the 96 well plate). Bacterial inoculum was prepared by adjusting the bacterial culture turbidity to 0.5 McFarland standard (approximately 1.5×10^8 cells/ml) and further diluted (100 times with sterile BHI broth). Diluted bacterial suspension (100 μl) was added to each well except sterility control wells (column 12 of 96 well plate). The plates were incubated at 37° C. for 24 h. The MIC of the test compound was measured after addition of Alamar blue dye.

S. aureus CCARM 3505 = conditions: for MIC: Staphylococcus aureus, CCARM3505, read-out: Minimum inhibitory concentration (MIC)
Description: as §1

E. faecium NCIM 5421 = conditions: for MIC: Enterococcus faecium, NCIM5421, read-out: Minimum inhibitory concentration (MIC)
Description: as §1

S. aureus ATCC 43300 = conditions: S. aureus ATCC 43300; for MIC: Staphylococcus aureus, ATCC43300, read-out: Minimum inhibitory concentration (MIC)
Description: as §1

[1] = tested on: S. epidermidis ATCC 35984; conditions: for MIC: Staphylococcus epidermidis, ATCC35984, read-out: Minimum inhibitory concentration (MIC)
Description: as §1

E. coli MTCC 1687 = conditions: Escherichia coli, MTCC1687, read-out: Minimum inhibitory concentration (MIC)
Description: as §1

E. coli BAA 196 = conditions: Escherichia coli, BAA196, read-out: Minimum inhibitory concentration (MIC)
Description: as §1

S. aureus MTCC 6908 = conditions: for MIC: Staphylococcus aureus, MTCC6908, read-out: Minimum inhibitory concentration (MIC)
Description: as §1

Row | MIC (S. epidermidis S12-1) | MIC (S. aureus CCARM 3505) | MIC (E. faecium NCIM 5421) | MIC (S. aureus ATCC 43300) | MIC [1] | MIC (E. coli MTCC 1687) | MIC (E. coli BAA 196) | MIC (S. aureus MTCC 6908) | SMILES | Minimum inhibitory concentration (MIC) (S. aureus ATCC 43300) | Minimum inhibitory concentration (MIC) (S. epidermidis S12-1) | Minimum inhibitory concentration (MIC) (S. aureus CCARM 3505) | Minimum inhibitory concentration (MIC) (E. faecium NCIM 5421) | Minimum inhibitory concentration (MIC) [1] | Minimum inhibitory concentration (MIC) (S. aureus MTCC 6908)
1 | 8 µg/mL (≈ 17 µM) | 8 µg/mL (≈ 17 µM) | 1 µg/mL (≈ 2.13 µM) | 0.13 µg/mL (≈ 0.276 µM) | 0.13 µg/mL (≈ 0.276 µM) | > 16 µg/mL | > 16 µg/mL | 4 µg/mL (≈ 8.5 µM) | CC1Sc2c(C(=O)O)c(=O)c3cc(F)c(N4CCN(C(=O)c5cccc[n+]5[O-])CC4)cc3n21 (centres unmarked) [Compound 34, 2-(4-(3-Carboxy-6-fluoro-1-methyl-4-oxo-1H,4H-[1,3]thiazeto[3,2-a]quinolin-7-yl)piperazine-1-carbonyl)pyridine-1-oxide] |  |  |  |  |  | 
2 | > 16 µg/mL | > 16 µg/mL | > 16 µg/mL | 8 µg/mL (≈ 17.8 µM) | > 16 µg/mL | 0.25 µg/mL (≈ 0.557 µM) | > 16 µg/mL | 8 µg/mL (≈ 17.8 µM) | CC1Sc2c(C(=O)O)c(=O)c3cc(F)c(N4CCN(C(=O)CNC(=N)N)CC4)cc3n21 (centres unmarked) [Compound 43, 7-(4-(Carbamimidoylglycyl)piperazin-1-yl)-6-fluoro-1-methyl-4-oxo-1H,4H-[1,3]thiazeto[3,2-a]quinoline-3-carboxylic acid] |  |  |  |  |  | 
3 | > 16 µg/mL | > 16 µg/mL | > 16 µg/mL | 1 µg/mL (≈ 2.38 µM) | 0.5 µg/mL (≈ 1.19 µM) |  |  | 2 µg/mL (≈ 4.76 µM) | CCNC(=O)N1CCN(c2cc3c(cc2F)c(=O)c(C(=O)O)c2n3C(C)S2)CC1 (centres unmarked) [Compound 48, 7-(4-(Ethylcarbamoyl)piperazin-1-yl)-6-fluoro-1-methyl-4-oxo-1H,4H-[1,3]thiazeto[3,2-a]quinoline-3-carboxylic acid] |  |  |  |  |  | 
4 | > 16 µg/mL | > 16 µg/mL | > 16 µg/mL | 16 µg/mL (≈ 34.6 µM) | > 16 µg/mL |  |  | 8 µg/mL (≈ 17.3 µM) | CC(=O)NC[C@H]1CN(c2ccc(N3CCN(C(=O)c4csc(N)n4)CC3)c(F)c2)C(=O)O1 [Compound 57, (S)—N-((3-(4-(4-(2-aminothiazole-4-carbonyl)piperazin-1-yl)-3-fluorophenyl)-2-oxooxazolidin-5-yl)methyl)acetamide] |  |  |  |  |  | 
5 | > 16 µg/mL | > 16 µg/mL | > 16 µg/mL | > 16 µg/mL | > 16 µg/mL |  |  | > 16 µg/mL | CC(=O)NC[C@H]1CN(c2ccc(N3CCN(C(=O)c4csc(NC(=N)N)n4)CC3)c(F)c2)C(=O)O1 [Compound 58, (S)—N-((3-(3-fluoro-4-(4-(2-guanidinothiazole-4-carbonyl)piperazin-1-yl)phenyl)-2-oxooxazolidin-5-yl)methyl)acetamide] |  |  |  |  |  | 
6 | > 16 µg/mL | > 16 µg/mL | > 16 µg/mL | > 16 µg/mL | 16 µg/mL (≈ 31.3 µM) |  |  | 16 µg/mL (≈ 31.3 µM) | CC(=O)NC[C@H]1CN(c2ccc(N3CCN(Cc4nc5ccc([N+](=O)[O-])cc5[nH]4)CC3)c(F)c2)C(=O)O1 [Compound 65, (S)—N-((3-(3-Fluoro-4-(4-((6-nitro-1H-benzo[d]imidazol-2-yl)methyl)piperazin-1-yl)phenyl)-2-oxooxazolidin-5-yl)methyl)acetamide] |  |  |  |  |  | 
7 | > 16 µg/mL | > 16 µg/mL | > 16 µg/mL |  | 8 µg/mL (≈ 14.9 µM) |  |  | 8 µg/mL (≈ 14.9 µM) | CC(=O)NC[C@H]1CN(c2ccc(N3CCN(Cc4nc5cc(Cl)c(Cl)cc5[nH]4)CC3)c(F)c2)C(=O)O1 [Compound 66, (S)—N-((3-(4-(4-((5,6-Dichloro-1H-benzo[d]imidazol-2-yl)methyl)piperazin-1-yl)-3-fluorophenyl)-2-oxooxazolidin-5-yl)methyl)acetamide] | 8/16 |  |  |  |  | 
8 | > 16 µg/mL | > 16 µg/mL | > 16 µg/mL | > 64 µg/mL | > 16 µg/mL |  |  | 16 µg/mL (≈ 30.5 µM) | CC(=O)NC[C@H]1CN(c2ccc(N3CCN(CC(=O)Nc4ccc5nc(N)[nH]c5c4)CC3)c(F)c2)C(=O)O1 [Compound 68, (S)-2-(4-(4-(5-(acetamidomethyl)-2-oxooxazolidin-3-yl)-2-fluorophenyl)piperazin-1-yl)-N-(2-amino-1H-benzo[d]imidazol-6-yl)acetamide] |  |  |  |  |  | 
9 | > 16 µg/mL | > 16 µg/mL | > 16 µg/mL | 16 µg/mL (≈ 30.5 µM) | > 16 µg/mL |  |  | 4 µg/mL (≈ 7.63 µM) | CC(=O)NC[C@H]1CN(c2ccc(N3CCN(C(=O)c4c[nH]c5ccc([N+](=O)[O-])cc45)CC3)c(F)c2)C(=O)O1 [Compound 75, (S)—N-((3-(3-fluoro-4-(4-(5-nitro-1H-indole-3-carbonyl)piperazin-1-yl)phenyl)-2-oxooxazolidin-5-yl)methyl)acetamide] |  |  |  |  |  | 
10 | 4 µg/mL (≈ 7.69 µM) | 8 µg/mL (≈ 15.4 µM) | > 16 µg/mL | 8 µg/mL (≈ 15.4 µM) | 2 µg/mL (≈ 3.84 µM) |  |  | 4 µg/mL (≈ 7.69 µM) | CC(=O)NC[C@H]1CN(c2ccc(N3CCN(C(=O)c4cccc(Br)n4)CC3)c(F)c2)C(=O)O1 [Compound 76, (S)—N-((3-(4-(4-(6-Bromopicolinoyl)piperazin-1-yl)-3-fluorophenyl)-2-oxooxazolidin-5-yl)methyl)acetamide] |  |  |  |  |  | 
11 | 4 µg/mL (≈ 9.06 µM) | 8 µg/mL (≈ 18.1 µM) | 0.5 µg/mL (≈ 1.13 µM) | 8 µg/mL (≈ 18.1 µM) | 4 µg/mL (≈ 9.06 µM) |  |  | 4 µg/mL (≈ 9.06 µM) | CC(=O)NC[C@H]1CN(c2ccc(N3CCN(C(=O)c4ccccn4)CC3)c(F)c2)C(=O)O1 [Compound 77, (S)—N-((3-(3-fluoro-4-(4-picolinoylpiperazin-1-yl)phenyl)-2-oxooxazolidin-5-yl)methyl)acetamide] |  |  |  |  |  | 
12 | 8 µg/mL (≈ 17.5 µM) | > 16 µg/mL | > 16 µg/mL | 16 µg/mL (≈ 35 µM) | 8 µg/mL (≈ 17.5 µM) |  |  | 8 µg/mL (≈ 17.5 µM) | CC(=O)NC[C@H]1CN(c2ccc(N3CCN(C(=O)c4cccc[n+]4[O-])CC3)c(F)c2)C(=O)O1 [Compound 78, (S)-2-(4-(4-(5-(acetamidomethyl)-2-oxooxazolidin-3-yl)-2-fluorophenyl)piperazine-1-carbonyl)-pyridine 1-oxide] |  |  |  |  |  | 
13 | > 16 µg/mL | > 16 µg/mL | > 16 µg/mL | 16 µg/mL (≈ 31.2 µM) | > 16 µg/mL |  |  | 16 µg/mL (≈ 31.2 µM) | CC(=O)NC[C@H]1CN(c2ccc(N3CCN(C(=O)CNC(=O)c4cccc[n+]4[O-])CC3)c(F)c2)C(=O)N1 [Compound 80, (S)-2-((2-(4-(4-(4-(Acetamidomethyl)-2-oxoimidazolidin-1-yl)-2-fluorophenyl)piperazin-1-yl)-2-oxoethyl)carbamoyl)pyridine 1-oxide] |  |  |  |  |  | 
14 | 8 µg/mL (≈ 19 µM) | > 16 µg/mL | > 16 µg/mL | > 16 µg/mL | 16 µg/mL (≈ 38 µM) |  |  | > 16 µg/mL | CC(=O)NC[C@H]1CN(c2ccc(N3CCN(C(=O)NC(=N)N)CC3)c(F)c2)C(=O)O1 [Compound 84, (S)-4-(4-(5-(Acetamidomethyl)-2-oxooxazolidin-3-yl)-2-fluorophenyl)-N-carbamimidoylpiperazine-1-carboxamide] |  |  |  |  |  | 
15 |  |  |  |  |  |  |  |  | CCCCCCCCCCC[CH2][SnH2][CH2][C@@H](NC(C)=O)C(=O)N1CCN(c2ccc(N3CC(CNC(C)=O)OC3=O)cc2F)CC1 (stereo partly drawn) [Compound 108, (S)—N-[2-(4-{4-[5-(Acetylamino-methyl)-2-oxo-oxazolidin-3-yl]-2-fluoro-phenyl}-piperazin-1-yl)-1-dodecylstannanylmethyl-2-oxo-ethyl]-acetamide] | >16 µg/mL | >16 µg/mL | >16 µg/mL | >16 µg/mL | >16 µg/mL | >16 µg/mL
16 | > 16 µg/mL | > 16 µg/mL | > 16 µg/mL | > 16 µg/mL | > 16 µg/mL |  |  | > 16 µg/mL | CC(=O)NC[C@H]1CN(c2ccc(N3CCN(C(=O)c4coc(N)n4)CC3)c(F)c2)C(=O)O1 [Compound 110, (S)—N-(3-{4-[4-(2-amino-oxazole-4-carbonyl)-piperazin-1-yl]-3-fluoro-phenyl}-2-oxo-oxazolidin-5-ylmethyl)-acetamide] |  |  |  |  |  | 
17 | > 16 µg/mL | > 16 µg/mL | > 16 µg/mL | 16 µg/mL (≈ 30.3 µM) | > 16 µg/mL |  |  | > 16 µg/mL | CC1Sc2c(C(=O)O)c(=O)c3cc(F)c(N4CCN(C(=O)CNC(=O)c5cccc[n+]5[O-])CC4)cc3n21 (centres unmarked) [Compound 111, 2-((2-(4-(3-carboxy-6-fluoro-1-methyl-4-oxo-1H,4H-[1,3]thiazeto[3,2-a]quinolin-7-yl)piperazin-1-yl)-2-oxoethyl)carbamoyl)pyridine 1-oxide] |  |  |  |  |  | 
18 | 8 µg/mL (≈ 15.2 µM) | > 16 µg/mL | > 16 µg/mL | 0.13 µg/mL (≈ 0.247 µM) | 0.13 µg/mL (≈ 0.247 µM) | 1 µg/mL (≈ 1.9 µM) |  | 0.25 µg/mL (≈ 0.476 µM) | CC1Sc2c(C(=O)O)c(=O)c3cc(F)c(N4CCN(CC(=O)NC(=O)Nc5ccccc5)CC4)cc3n21 (centres unmarked) [Compound 112, 6-Fluoro-1-methyl-4-oxo-7-(4-(2-oxo-2-(3-phenylureido)ethyl)piperazin-1-yl)-1H,4H-[1,3]thiazeto-[3,2-a]quinoline-3-carboxylic acid] |  |  |  |  |  | 

— patent publication US10570152B2, “Antibacterial therapeutics and prophylactics” (VYOME BIOSCIENCES PVT. LTD., priority 2015, dated 2020)
